Reference: paper PMC6345968, “Structural basis for species-selective targeting of Hsp90 in a pathogenic fungus” (Nature Communications, 2019)
“And” between values parts separate entries of the source, which are not always exact repeats. Identical values can stand only once. Like-named read-outs stand apart in the source and are kept apart here.

Assays:
human Hsp90 NBD = human Hsp90 NBD (Homo sapiens, UniProt P08238); conditions: 0.1 nM Cy3-GdA, Human NBD-Hsp90 (10 nM), Experiments 1-3
C. albicans Hsp90 NBD = target: T1, C. albicans Hsp90 NBD (Candida albicans, UniProt P46598); assay: biochemical; assay type: binding; conditions: 0.1 nM Cy3-GdA, C. albicans NBD-Hsp90 (10 nM), Experiments 1-3
T1 construct: C. albicans Hsp90 (E7-K218); made in house; host or cells: E. coli Rosetta2
T1 sequence (P46598 7-218): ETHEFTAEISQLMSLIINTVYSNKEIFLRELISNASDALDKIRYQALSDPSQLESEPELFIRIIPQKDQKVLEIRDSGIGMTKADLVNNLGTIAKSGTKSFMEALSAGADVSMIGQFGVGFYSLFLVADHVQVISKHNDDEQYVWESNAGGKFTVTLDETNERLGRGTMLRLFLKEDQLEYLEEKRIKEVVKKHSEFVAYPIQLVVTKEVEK

Hsp90 in 3T3 lysate = assay: FP competition in whole-cell lysate; assay type: binding, mouse; conditions: 3T3 lysate
Description: After vortexing, cell lysate was frozen at −80 °C for 2 h, followed by thawing on ice. The vortex-freeze-thaw step was repeated. […] Aliquots were thawed immediately prior to use.

[1] = target: T2, Hsp90 in C. albicans (SC5314) lysate (Candida albicans, UniProt P46598); assay: biochemical; assay type: binding; conditions: SC5314 lysate
T2 construct: endogenous in cells; host or cells: C. albicans SC5314 whole-cell lysate
T2 sequence (P46598 whole entry): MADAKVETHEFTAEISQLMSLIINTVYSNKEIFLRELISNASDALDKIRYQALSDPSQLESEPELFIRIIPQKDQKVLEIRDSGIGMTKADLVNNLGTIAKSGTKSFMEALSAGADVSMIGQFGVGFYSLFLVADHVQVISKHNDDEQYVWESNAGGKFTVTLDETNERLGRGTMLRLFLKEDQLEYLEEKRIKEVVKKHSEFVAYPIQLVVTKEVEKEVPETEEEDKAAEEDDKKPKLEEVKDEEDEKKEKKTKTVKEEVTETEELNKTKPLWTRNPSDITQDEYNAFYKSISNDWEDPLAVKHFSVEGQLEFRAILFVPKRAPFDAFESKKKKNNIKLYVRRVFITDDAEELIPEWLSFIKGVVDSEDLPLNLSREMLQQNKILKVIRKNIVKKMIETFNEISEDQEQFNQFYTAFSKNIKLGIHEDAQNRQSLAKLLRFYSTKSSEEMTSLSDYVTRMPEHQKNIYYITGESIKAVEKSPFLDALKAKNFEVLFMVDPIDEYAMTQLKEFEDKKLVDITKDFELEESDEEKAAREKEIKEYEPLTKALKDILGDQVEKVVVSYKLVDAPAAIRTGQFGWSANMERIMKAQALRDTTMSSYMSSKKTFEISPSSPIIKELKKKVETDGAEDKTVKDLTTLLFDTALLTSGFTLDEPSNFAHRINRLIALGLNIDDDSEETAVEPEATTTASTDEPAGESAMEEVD

Sequence of human Hsp90 NBD (P08238 1-223): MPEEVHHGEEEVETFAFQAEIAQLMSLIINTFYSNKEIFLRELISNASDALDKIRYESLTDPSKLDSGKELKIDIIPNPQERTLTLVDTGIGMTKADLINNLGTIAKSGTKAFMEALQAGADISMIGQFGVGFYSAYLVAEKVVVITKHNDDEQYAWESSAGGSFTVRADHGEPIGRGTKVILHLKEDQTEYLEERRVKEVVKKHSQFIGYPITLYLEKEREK

Question: Which results are given for `CCNC(=O)c1noc(-c2cc(C(C)C)c(O)cc2O)c1-c1ccc(CN2CCOCC2)cc1` [AUY922, reference compound]?
Answer: FP signal as fraction of no-compound (0 uM) control (human Hsp90 NBD; Cmpd 1 uM): 0.1184 and 0.1081 and 0.09901; FP signal (raw) (human Hsp90 NBD; Cmpd 2 uM): 17 and 9 and 14; FP signal as fraction of no-compound (0 uM) control (human Hsp90 NBD; Cmpd 2 uM): 0.09211 and 0.1149 and 0.08911; FP signal (raw) (C. albicans Hsp90 NBD; Cmpd 0.002 uM): 157 and 150 and 92; remaining activity at 0.002 µM (C. albicans Hsp90 NBD; Cmpd 0.002 uM, read-out: FP signal as fraction of no-compound (0 uM) control): 92.9%; FP signal (raw) (C. albicans Hsp90 NBD; Cmpd 0.004 uM): 138 and 125 and 79; remaining activity at 0.004 µM (C. albicans Hsp90 NBD; Cmpd 0.004 uM, read-out: FP signal as fraction of no-compound (0 uM) control): 72.7%; remaining activity at 0.008 µM (C. albicans Hsp90 NBD; Cmpd 0.008 uM, read-out: FP signal as fraction of no-compound (0 uM) control): 47.6%; remaining activity at 0.016 µM (C. albicans Hsp90 NBD; Cmpd 0.016 uM, read-out: FP signal as fraction of no-compound (0 uM) control): 20.6%; FP signal (raw) (C. albicans Hsp90 NBD; Cmpd 0.063 uM): 20 and 22 and 14; remaining activity at 0.063 µM (C. albicans Hsp90 NBD; Cmpd 0.063 uM, read-out: FP signal as fraction of no-compound (0 uM) control): 14.1%; remaining activity at 0.25 µM (C. albicans Hsp90 NBD; Cmpd 0.25 uM, read-out: FP signal as fraction of no-compound (0 uM) control): 10.6%; remaining activity at 0.5 µM (C. albicans Hsp90 NBD; Cmpd 0.5 uM, read-out: FP signal as fraction of no-compound (0 uM) control): 8.82%; remaining activity at 1 µM (C. albicans Hsp90 NBD; Cmpd 1 uM, read-out: FP signal as fraction of no-compound (0 uM) control): 9.88%; remaining activity at 2 µM (C. albicans Hsp90 NBD; Cmpd 2 uM, read-out: FP signal as fraction of no-compound (0 uM) control): 13.5%; remaining activity at […] (C. albicans Hsp90 NBD; Cmpd […], read-out: FP signal as fraction of no-compound (0 uM) control): 17.1%; remaining activity at […] (C. albicans Hsp90 NBD; read-out: FP signal as fraction of no-compound (0 uM) control, Cmpd […]): 9.41%; FP signal (raw) (Hsp90 in 3T3 lysate; 0.002 uM): 250; FP signal, fraction of control (Hsp90 in 3T3 lysate; 0.002 uM): 0.9881; FP signal (raw) (Hsp90 in 3T3 lysate; 0.004 uM): 248; FP signal, fraction of control (Hsp90 in 3T3 lysate; 0.004 uM): 0.9802; FP signal (raw) (Hsp90 in 3T3 lysate; 0.008 uM): 244; FP signal, fraction of control (Hsp90 in 3T3 lysate; 0.008 uM): 0.9644; FP signal (raw) (Hsp90 in 3T3 lysate; 0.016 uM): 209; FP signal, fraction of control (Hsp90 in 3T3 lysate; 0.016 uM): 0.8261; FP signal (raw) (Hsp90 in 3T3 lysate; 0.063 uM): 39; FP signal, fraction of control (Hsp90 in 3T3 lysate; 0.063 uM): 0.1542; FP signal (raw) (Hsp90 in 3T3 lysate; 0.25 uM): 23; FP signal, fraction of control (Hsp90 in 3T3 lysate; 0.25 uM): 0.09091; FP signal (raw) (Hsp90 in 3T3 lysate; 0.5 uM): 22; FP signal, fraction of control (Hsp90 in 3T3 lysate; 0.5 uM): 0.08696; FP signal (raw) (Hsp90 in 3T3 lysate; 1 uM): 23; FP signal, fraction of control (Hsp90 in 3T3 lysate; 1 uM): 0.09091; FP signal (raw) (Hsp90 in 3T3 lysate; 2 uM): 22; FP signal, fraction of control (Hsp90 in 3T3 lysate; 2 uM): 0.08696; EC50 (Hsp90 in 3T3 lysate; fit against log conc uM): 0.0235 µM; Rel. to GdA ([1]; EC50 relative to GdA): 0.2794; FP signal (raw) ([1]; 0.457 nM): 200; FP signal (raw) ([1]; 1.372 nM): 186; FP signal (raw) ([1]; 0.002 uM): 174; remaining activity at 0.002 µM ([1]; 0.002 uM, read-out: FP signal, fraction of control): 93.5%; FP signal (raw) ([1]; 0.004 uM): 157; remaining activity at 0.004 µM ([1]; 0.004 uM, read-out: FP signal, fraction of control): 84.4%; FP signal (raw) ([1]; 4.115 nM): 138; FP signal (raw) ([1]; 0.008 uM): 93; remaining activity at 0.008 µM ([1]; 0.008 uM, read-out: FP signal, fraction of control): 50%; FP signal (raw) ([1]; 0.016 uM): 21; remaining activity at 0.016 µM ([1]; 0.016 uM, read-out: FP signal, fraction of control): 11.3%; remaining activity at […] ([1]; 0.031 uM, read-out: FP signal, fraction of control): 3.76%; FP signal (raw) ([1]; 37.037 nM): 35; FP signal (raw) ([1]; 0.063 uM): 1; remaining activity at 0.063 µM ([1]; 0.063 uM, read-out: FP signal, fraction of control): 0.538%; FP signal (raw) ([1]; 111.111 nM): 31; FP signal (raw) ([1]; 0.25 uM): -2; remaining activity at 0.25 µM ([1]; 0.25 uM, read-out: FP signal, fraction of control): -1.08%; FP signal (raw) ([1]; 333.333 nM): 28; FP signal (raw) ([1]; 0.5 uM): 3; remaining activity at 0.5 µM ([1]; 0.5 uM, read-out: FP signal, fraction of control): 1.61%; FP signal (raw) ([1]; 1 uM): -2; remaining activity at 1 µM ([1]; 1 uM, read-out: FP signal, fraction of control): -1.08%; FP signal (raw) ([1]; 1000 nM): 33; FP signal (raw) ([1]; 2 uM): 2; remaining activity at 2 µM ([1]; 2 uM, read-out: FP signal, fraction of control): 1.08%; FP signal (raw) ([1]; 3000 nM): 31
